Where two headings read alike, the source gives them in different places. Where only a bound is given, the exact number is not on record here.

In general, IC50 refers to the concentration that gives 50% inhibition. The EC50 is the concentration that produces a half-maximal response.

For series [1], the system named is CHIKV pseudoparticles (CHIKVpp). In kind it is cell-based, Chikungunya virus.
The target in series [2] is T1, VEEV nsP1 (Venezuelan equine encephalitis virus, UniProt P36328). The series can be described thus: biochemical. The class given is biochemical.
The target of series [3] is T1, VEEV nsP1. The series can be described thus: biochemical.
For series [4], the system named is CHIKV strain 899. The note with it: cited from earlier work.
In series [5] the test system is CHIKV. As to conditions: cited from earlier work.
Series [6] has as its system CHIKV. The note with it: clinical studies; cited from earlier work.
For series [7], the system named is CHIKV. The series can be described thus: Time-of-addition study, CHIKV RNA reduction. The note with it: for reduction in CHIKV RNA: added 6 h post infection, assessed at 24 h post infection. In kind it is cell-based, Chikungunya virus.
The subject of series [8] is CHIKV strain 899. The series can be described thus: CPE reduction antiviral assay, CHIKV 899 in Vero A cells (MTS/PMS). As to conditions: Chikungunya virus. In kind it is cell-based.
The test system of series [9] is MADTP-314res CHIKV 899 variant. The series can be described thus: microbe, parasite or virus in culture. In kind it is cell-based, Chikungunya virus. The note with it: for EC50: Chikungunya virus, read-out: EC50 MADTP-314res variant 3 (resistance selection).
The next series has as its system WT CHIKV LS3. Kind of series: microbe, parasite or virus in culture. In kind it is cell-based, Chikungunya virus. As to conditions: for EC50: Chikungunya virus, Vero C1008, read-out: EC50 WT LS3 (reverse genetics).
A further series deals with CHIKV RNA synthesis. Kind of series: Metabolic labeling with 3H-uridine of CHIKV RNA in infected Vero E6 cells. The class given is cell-based, Chikungunya virus. As to conditions: 50–250 μM.
Another series relates to VEEV TC83. The series can be described thus: microbe, parasite or virus in culture. In kind it is cell-based. The note with it: Venezuelan equine encephalitis virus, Vero C1008, read-out: EC50, in vitro antiviral activity against VEEV TC83.
Series [10] relates to translation of incoming capped CHIKV RNA. In kind it is cell-based, Chikungunya virus. The note with it: 250 μM.
In series [11] the target is CHIKV replication/transcription complexes (RTCs) (Chikungunya virus, UniProt Q8JUX6). Kind of series: In vitro RNA synthesis assay with isolated CHIKV replication/transcription complexes (32P-CTP incorporation). In kind it is biochemical. The note with it: 250 μM.
A further series can be described thus: in vitro. The note with it: African green monkey.
In series [12] the test system is CHIKV Venturini (Italy 2008). Kind of series: Viral RNA reduction (qRT-PCR) antiviral assay in Vero E6 cells. The class given is cell-based. As to conditions: Chikungunya virus, Vero C1008, read-out: EC50, in vitro antiviral activity against CHIKV Venturini (Italy 2008). In general terms: Real-time PCR tracks product formation cycle by cycle.
The next series concerns CHIKV Congo 95 (2011). The description is as above. The class given is cell-based. The note with it: Chikungunya virus, Vero C1008, read-out: EC50, in vitro antiviral activity against CHIKV Congo 95 (2011).
For series [13], the system named is CHIKV. As to conditions: cited from earlier work. This is another data set of the same source.
Another series relates to Vero cells. As to conditions: cited from earlier work.
Setting [14] is: read-out: EC50 WT 899 (resistance selection).
The mark [15] stands for this setting: 120 h, read-out: EC50, in vitro antiviral activity against CHIKV 899 (lab).

T1 sequence (P36328 1-535 limits assumed): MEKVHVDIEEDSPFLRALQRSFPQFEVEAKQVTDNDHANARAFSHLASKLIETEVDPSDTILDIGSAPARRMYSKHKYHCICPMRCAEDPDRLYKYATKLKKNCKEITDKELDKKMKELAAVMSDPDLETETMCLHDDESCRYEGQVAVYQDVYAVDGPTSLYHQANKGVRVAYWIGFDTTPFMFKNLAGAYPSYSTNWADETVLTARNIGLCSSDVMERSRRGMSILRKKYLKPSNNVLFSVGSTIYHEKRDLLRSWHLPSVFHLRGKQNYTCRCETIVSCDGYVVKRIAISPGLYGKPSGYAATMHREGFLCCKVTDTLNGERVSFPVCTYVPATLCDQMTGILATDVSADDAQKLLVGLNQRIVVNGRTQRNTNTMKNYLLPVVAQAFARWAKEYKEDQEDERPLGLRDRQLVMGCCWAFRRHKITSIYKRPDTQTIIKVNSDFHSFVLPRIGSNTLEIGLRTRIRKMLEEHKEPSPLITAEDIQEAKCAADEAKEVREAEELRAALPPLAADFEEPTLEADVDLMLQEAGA
Chain of CHIKV replication/transcription complexes (RTCs) (Q8JUX6 1864-2474 limits assumed): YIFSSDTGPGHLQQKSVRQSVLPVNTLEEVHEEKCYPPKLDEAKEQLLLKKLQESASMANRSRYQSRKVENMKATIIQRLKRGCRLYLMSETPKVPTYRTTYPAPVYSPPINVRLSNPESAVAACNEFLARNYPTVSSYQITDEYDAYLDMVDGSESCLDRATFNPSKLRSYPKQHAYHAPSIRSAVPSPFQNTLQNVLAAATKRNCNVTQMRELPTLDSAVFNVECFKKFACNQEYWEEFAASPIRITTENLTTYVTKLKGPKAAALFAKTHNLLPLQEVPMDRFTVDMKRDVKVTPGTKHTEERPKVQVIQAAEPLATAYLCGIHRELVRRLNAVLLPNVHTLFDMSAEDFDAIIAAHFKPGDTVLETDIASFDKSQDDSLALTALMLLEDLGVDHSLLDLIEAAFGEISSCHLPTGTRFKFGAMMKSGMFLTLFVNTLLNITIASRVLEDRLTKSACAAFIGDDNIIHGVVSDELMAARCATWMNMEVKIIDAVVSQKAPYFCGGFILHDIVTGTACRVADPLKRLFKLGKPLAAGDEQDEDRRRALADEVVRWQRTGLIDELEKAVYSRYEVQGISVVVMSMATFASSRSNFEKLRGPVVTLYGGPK
Chain of CHIKV replication/transcription complexes (RTCs) (Q8JUX6 1-535 partner limits assumed): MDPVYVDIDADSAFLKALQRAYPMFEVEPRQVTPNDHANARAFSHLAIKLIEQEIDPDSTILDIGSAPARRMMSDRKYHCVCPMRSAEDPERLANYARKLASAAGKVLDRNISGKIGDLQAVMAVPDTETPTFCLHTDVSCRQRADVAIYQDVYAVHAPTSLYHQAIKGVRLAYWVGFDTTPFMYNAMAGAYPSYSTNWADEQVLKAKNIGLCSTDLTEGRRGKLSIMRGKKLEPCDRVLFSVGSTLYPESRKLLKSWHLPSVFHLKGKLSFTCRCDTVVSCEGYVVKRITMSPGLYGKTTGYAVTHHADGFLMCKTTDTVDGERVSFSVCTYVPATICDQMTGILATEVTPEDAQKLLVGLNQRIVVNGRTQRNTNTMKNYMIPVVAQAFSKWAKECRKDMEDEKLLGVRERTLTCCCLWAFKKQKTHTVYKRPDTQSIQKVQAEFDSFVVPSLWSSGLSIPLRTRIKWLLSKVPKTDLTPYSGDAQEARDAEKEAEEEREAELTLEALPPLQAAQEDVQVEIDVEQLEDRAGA
Chain of CHIKV replication/transcription complexes (RTCs) (Q8JUX6 536-1333 partner limits assumed): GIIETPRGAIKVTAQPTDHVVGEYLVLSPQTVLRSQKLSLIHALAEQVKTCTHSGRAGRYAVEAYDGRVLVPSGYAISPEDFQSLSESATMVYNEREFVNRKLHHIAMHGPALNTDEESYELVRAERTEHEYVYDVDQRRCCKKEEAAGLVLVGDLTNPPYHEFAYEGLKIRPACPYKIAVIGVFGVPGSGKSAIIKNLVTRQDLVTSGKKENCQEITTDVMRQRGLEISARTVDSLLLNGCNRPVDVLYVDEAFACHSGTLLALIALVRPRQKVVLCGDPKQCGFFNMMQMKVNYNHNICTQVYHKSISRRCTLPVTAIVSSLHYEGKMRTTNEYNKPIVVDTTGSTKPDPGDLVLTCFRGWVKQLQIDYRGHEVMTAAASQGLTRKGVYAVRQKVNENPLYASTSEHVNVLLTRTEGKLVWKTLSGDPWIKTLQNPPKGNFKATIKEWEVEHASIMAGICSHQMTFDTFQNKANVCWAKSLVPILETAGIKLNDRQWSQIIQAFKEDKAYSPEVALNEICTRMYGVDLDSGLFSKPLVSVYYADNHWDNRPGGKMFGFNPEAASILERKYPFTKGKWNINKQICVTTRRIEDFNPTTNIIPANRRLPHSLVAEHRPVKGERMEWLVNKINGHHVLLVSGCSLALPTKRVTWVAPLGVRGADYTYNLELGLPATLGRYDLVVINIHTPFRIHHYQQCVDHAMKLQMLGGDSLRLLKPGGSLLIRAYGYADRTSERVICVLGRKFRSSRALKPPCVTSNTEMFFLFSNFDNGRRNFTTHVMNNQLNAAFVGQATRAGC

Consider `CCOC(=O)c1c(CSc2ccccc2)n(C)c2cc(Br)c(O)c(CN(C)C)c12` [arbidol], for which, in [1], the “entry of CHIKV pseudoparticles into the host cell” value (“entry” below) is “inhibited CHIKVpp entry in a dose-dependent manner”.

As to `CCCOc1ccc(-n2nnc3c(=O)[nH]c(C)nc32)cc1` [MADTP-346], the “GT activity of VEEV nsP1 (formation of m7GMP-nsP1 complex)” value on VEEV nsP1 [2] is “did not inhibit the GT activity”. For the same molecule, the IC50 at VEEV nsP1 [3] was > 1000 µM. For the same molecule, the “anti-CHIKV activity in cell culture” value in the series with CHIKV strain 899 [4] was “devoid of anti-CHIKV activity”.

Consider `CCN(CC)CCCC(C)Nc1ccnc2cc(Cl)ccc12` (stereo not drawn) [Chloroquine], for which the “effect on CHIKV replication in vitro” value in the series with CHIKV [5] is “dose- and time-dependent inhibitory effect”. Besides, the “efficacy in infected patients” value in the series on CHIKV [6] is “failed to prove its efficacy”. Further, in the series on CHIKV [7] (added 2 h before infection), the “reduction of CHIKV RNA” value was 2 log10. Further, the “protective activity in time-of-addition” value in the series on CHIKV [7] (added at time points later than 1 h p.i.) is recorded as “entirely lost its protective activity”. Besides, the EC50 in the series with CHIKV strain 899 [8] (setting [14]) was 18 ± 11 µM. Moreover, the “entry” value in series [1] is reported as “inhibited CHIKVpp entry in a dose-dependent manner”. Further, in series [9], the “cross-resistance of MADTP-314-resistant variants” value is reported as “No cross-resistance” and the EC50 came out at 20 ± 4.7 µM.

`CC(=O)c1cccc(-n2nnc3c(=O)[nH]c(C)nc32)c1` [MADTP-314, 3-(3′-acetylphenyl)-5-methyl-3H-[1,2,3]triazolo[4,5-d]pyrimidin-7(6H)-one]: the “reduction in CHIKV RNA” value in the series on CHIKV [7] was found to be 1.3 log10. In addition, the EC50 with CHIKV strain 899 [8] (setting [15]) was 26 ± 11 µM; in the series on WT CHIKV LS3, 40 ± 5 µM; in the series with VEEV TC83, > 40 µM; in series [12], 26 ± 2 µM; in [9] it was 283 ± 45 µM; in the series with CHIKV Congo 95 (2011), 6.4 ± 0.1 µM. The “fold less sensitive, CHIKV LS3 vs CHIKV 899” value in the series on WT CHIKV LS3 is given as 1.5 fold. In addition, the “CHIKV RNA synthesis (3H-uridine incorporation)” value with CHIKV RNA synthesis is listed as “did not inhibit CHIKV RNA synthesis”. Also, in series [10], the “luciferase activity (translation of replication-deficient CHIKV RNA)” value is “comparable to that in untreated control cells”. Besides, the IC50 on VEEV nsP1 [3] was > 1000 µM. In series [11], the “incorporation of 32P-CTP into CHIKV RNA by isolated RTCs” value is “did not inhibit the incorporation”. Further, the CC50 in the series “in vitro” is > 743 µM. For the same molecule, the “entry” value in series [1] is “not able to block the entry”. Moreover, the “fold less sensitive, MADTP-314-resistant variants vs wild-type” value in [9] is reported as ~ 11 fold.

Regarding `NC(=O)c1nc(F)c[nH]c1=O` [T-705, reference compound], the “anti-CHIKV activity in vitro” value in the series on CHIKV [5] is recorded as “exerts anti-CHIKV activity”. Also, the “reduction in CHIKV RNA” value with CHIKV [7] was determined as 1.0 log10. The EC50 with CHIKV strain 899 [8] (setting [14]) turned out to be 20 ± 2.7 µM. The “anti-CHIKV activity in a mouse model” value with CHIKV [13] is recorded as “exerts anti-CHIKV activity”. In series [9], the “cross-resistance of MADTP-314-resistant variants” value is “No cross-resistance” and the EC50 turned out to be 34 ± 5.7 µM.

Consider `CCc1nc2c(nnn2-c2cccc(C(C)=O)c2)c(=O)[nH]1` [MADTP-393], for which the EC50 in the series on CHIKV strain 899 [8] (setting [15]) was determined as 18 ± 6.4 µM; in the series on WT CHIKV LS3, 15 ± 0.8 µM; in the series on VEEV TC83, 35 ± 10 µM; in [12], 8.2 ± 2.2 µM; in series [9], 193 ± 14 µM; with CHIKV Congo 95 (2011), 1.4 ± 0.3 µM. The same molecule had a CC50 in the series “in vitro” of 57 µM.

`CCc1nc2c(nnn2-c2cccc(OC(C)C)c2)c(=O)[nH]1` [MADTP-372, 5-ethyl-3-(3-isopropoxyphenyl)-3H-[1,2,3]triazolo[4,5-d]-pyrimidin-7(6H)-one]: the EC50 in the series with CHIKV strain 899 [8] (setting [15]) came out at 2.6 ± 1 µM; in the series with WT CHIKV LS3, 4.9 ± 0.6 µM; with VEEV TC83, 6.8 µM; in series [12], 1.4 ± 0.01 µM; in series [9], 255 ± 16 µM; in the series on CHIKV Congo 95 (2011), 0.75 ± 0.4 µM. For the same molecule, on VEEV nsP1 [2], the “GT activity of VEEV nsP1 (formation of m7GMP-nsP1 complex)” value is reported as “inhibited the GT activity of VEEV nsP1 in a concentration-dependent manner”. For the same molecule, the values for the IC50 against VEEV nsP1 [2] and at VEEV nsP1 [3] were 10 ± 0.3 µM and > 1000 µM, respectively. The CC50 in the series on Vero cells was > 400 µM; in the series “in vitro”, > 668 µM.
